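Where inhibition never reached the appropriate level, the endpoint shown equals the highest concentration tested. Otherwise, values were interpolated linearly from a five-concentration, 48-hour dose response in 96-well plates. GI50 = concentration required for 50% inhibition of growth.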 The source made the active and inactive calls. Rule as the data show it: active = GI50 up to about 1.1 µM and inactive = higher.
Legend:
Assay in all cases: NCI-60 cell line screen, 48 h
[1] = tested on: 786-0
[2] = tested on: K562
[3] = tested on: M19-MEL
[4] = tested on: SNB-78
[5] = tested on: UO-31
[6] = tested on: UACC-62
[7] = tested on: CCRF-CEM
[8] = tested on: DMS-273
[9] = tested on: A498
[10] = tested on: KM-20L2
[11] = tested on: SK-MEL-28
[12] = tested on: NCI-H460
[13] = tested on: HCT-116
[14] = tested on: SK-OV-3
[15] = tested on: IGROV-1
[16] = tested on: SN12C
[17] = tested on: RPMI-8226
[18] = tested on: A549
[19] = tested on: SNB-19
[20] = tested on: U-251
[21] = tested on: LXFL 529
[22] = tested on: OVCAR-5
[23] = tested on: ACHN
[24] = tested on: M14
[25] = tested on: OVCAR-4
[26] = tested on: Malme-3M
[27] = tested on: KM12
[28] = tested on: COLO 205
[29] = tested on: DLD-1
[30] = tested on: OVCAR-3
[31] = tested on: NCI-H226
[32] = tested on: CAKI-1
[33] = tested on: SW-620
[34] = tested on: NCI-H522
[35] = tested on: HL-60
[36] = tested on: DMS-114
[37] = tested on: SNB-75
[38] = tested on: UACC-257
[39] = tested on: SF-268
[40] = tested on: HT-29
[41] = tested on: NCI-H23
[42] = tested on: SF-295
[43] = tested on: SF-539
[44] = tested on: OVCAR-8
[45] = tested on: SK-MEL-5
[46] = tested on: LOX IMVI
[47] = tested on: HCT-15
[48] = tested on: SK-MEL-2
[49] = tested on: RXF 393
[50] = tested on: HOP-18
[51] = tested on: HOP-62
[52] = tested on: MOLT-4
[53] = tested on: TK-10
[54] = tested on: HCC 2998
[55] = tested on: XF498
[56] = tested on: EKVX

OC12c3ccccc3C1CCCCCC21OCCCO1 (centres undefined)
GI50 [1]: > 100 µM (inactive)
GI50 [2]: > 100 µM (inactive)
GI50 [3]: > 100 µM (inactive)
GI50 [4]: > 100 µM (inactive)
GI50 [5]: > 100 µM (inactive)
GI50 [6]: > 100 µM (inactive)
GI50 [7]: > 100 µM (inactive)
GI50 [8]: > 100 µM (inactive)
GI50 [9]: > 100 µM (inactive)
GI50 [10]: > 100 µM (inactive)
GI50 [11]: > 100 µM (inactive)
GI50 [12]: > 100 µM (inactive)
GI50 [13]: > 100 µM (inactive)
GI50 [14]: > 100 µM (inactive)
GI50 [15]: > 100 µM (inactive)
GI50 [16]: > 100 µM (inactive)
GI50 [17]: > 100 µM (inactive)
GI50 [18]: > 100 µM (inactive)
GI50 [19]: > 100 µM (inactive)
GI50 [20]: > 100 µM (inactive)
GI50 [21]: > 100 µM (inactive)
GI50 [22]: > 100 µM (inactive)
GI50 [23]: > 100 µM (inactive)
GI50 [24]: > 100 µM (inactive)
GI50 [25]: > 100 µM (inactive)
GI50 [26]: > 100 µM (inactive)
GI50 [27]: > 100 µM (inactive)
GI50 [28]: > 100 µM (inactive)
GI50 [29]: > 100 µM (inactive)
GI50 [30]: > 100 µM (inactive)
GI50 [31]: > 100 µM (inactive)
GI50 [32]: > 100 µM (inactive)
GI50 [33]: > 100 µM (inactive)
GI50 [34]: > 100 µM (inactive)
GI50 [35]: 11.4 µM (inactive)
GI50 [36]: > 100 µM (inactive)
GI50 [37]: > 100 µM (inactive)
GI50 [38]: > 100 µM (inactive)
GI50 [39]: > 100 µM (inactive)
GI50 [40]: > 100 µM (inactive)
GI50 [41]: > 100 µM (inactive)
GI50 [42]: > 100 µM (inactive)
GI50 [43]: > 100 µM (inactive)
GI50 [44]: > 100 µM (inactive)
GI50 [45]: > 100 µM (inactive)
GI50 [46]: > 100 µM (inactive)
GI50 [47]: > 100 µM
GI50 [48]: > 100 µM (inactive)
GI50 [49]: > 100 µM (inactive)
GI50 [50]: > 100 µM (inactive)
GI50 [51]: > 100 µM (inactive)
GI50 [52]: > 100 µM (inactive)
GI50 [53]: > 100 µM (inactive)

CCOc1ccccc1NC(=O)C(=O)C1C(=O)Nc2ccccc2[S+]1[O-] (centres undefined)
GI50 [1]: > 100 µM (inactive)
GI50 [2]: > 100 µM (inactive)
GI50 [4]: > 100 µM (inactive)
GI50 [5]: > 100 µM (inactive)
GI50 [7]: > 100 µM (inactive)
GI50 [8]: > 100 µM (inactive)
GI50 [11]: > 100 µM (inactive)
GI50 [12]: > 100 µM (inactive)
GI50 [13]: > 100 µM (inactive)
GI50 [14]: > 100 µM (inactive)
GI50 [17]: > 100 µM (inactive)
GI50 [18]: > 100 µM (inactive)
GI50 [20]: > 100 µM (inactive)
GI50 [21]: > 100 µM (inactive)
GI50 [24]: > 100 µM (inactive)
GI50 [26]: > 100 µM (inactive)
GI50 [30]: > 100 µM (inactive)
GI50 [34]: > 100 µM (inactive)
GI50 [35]: > 100 µM (inactive)
GI50 [36]: > 100 µM (inactive)
GI50 [39]: > 100 µM (inactive)
GI50 [54]: > 100 µM (inactive)
GI50 [47]: > 100 µM
GI50 [48]: > 100 µM (inactive)
GI50 [49]: > 100 µM (inactive)
GI50 [50]: > 100 µM (inactive)
GI50 [52]: > 100 µM (inactive)

CCCCCCC(/C=N/O)C(C)(O)CCC (centres undefined)
GI50 [1]: > 100 µM (inactive)
GI50 [2]: 84.3 µM (inactive)
GI50 [3]: > 100 µM (inactive)
GI50 [4]: > 100 µM (inactive)
GI50 [5]: > 100 µM (inactive)
GI50 [6]: > 100 µM (inactive)
GI50 [7]: > 100 µM (inactive)
GI50 [8]: > 100 µM (inactive)
GI50 [9]: > 100 µM (inactive)
GI50 [10]: > 100 µM (inactive)
GI50 [11]: > 100 µM (inactive)
GI50 [12]: > 100 µM (inactive)
GI50 [13]: 91.4 µM (inactive)
GI50 [15]: > 100 µM (inactive)
GI50 [16]: > 100 µM (inactive)
GI50 [55]: 13.2 µM (inactive)
GI50 [17]: 54 µM (inactive)
GI50 [18]: > 100 µM (inactive)
GI50 [19]: > 100 µM (inactive)
GI50 [20]: > 100 µM (inactive)
GI50 [21]: > 100 µM (inactive)
GI50 [22]: > 100 µM (inactive)
GI50 [56]: > 100 µM (inactive)
GI50 [23]: > 100 µM (inactive)
GI50 [24]: > 100 µM (inactive)
GI50 [25]: > 100 µM (inactive)
GI50 [26]: > 100 µM (inactive)
GI50 [27]: > 100 µM (inactive)
GI50 [28]: > 100 µM (inactive)
GI50 [29]: > 100 µM (inactive)
GI50 [30]: > 100 µM (inactive)
GI50 [31]: > 100 µM (inactive)
GI50 [32]: > 100 µM (inactive)
GI50 [33]: > 100 µM (inactive)
GI50 [34]: 37.7 µM (inactive)
GI50 [35]: 67.9 µM (inactive)
GI50 [36]: 73.6 µM (inactive)
GI50 [37]: > 100 µM (inactive)
GI50 [38]: > 100 µM (inactive)
GI50 [39]: > 100 µM (inactive)
GI50 [40]: > 100 µM (inactive)
GI50 [41]: > 100 µM (inactive)
GI50 [42]: > 100 µM (inactive)
GI50 [43]: > 100 µM (inactive)
GI50 [44]: > 100 µM (inactive)
GI50 [45]: > 100 µM (inactive)
GI50 [54]: > 100 µM (inactive)
GI50 [46]: > 100 µM (inactive)
GI50 [47]: > 100 µM
GI50 [48]: > 100 µM (inactive)
GI50 [49]: > 100 µM (inactive)
GI50 [51]: > 100 µM (inactive)
GI50 [52]: 61.7 µM (inactive)
GI50 [53]: > 100 µM (inactive)
